# Test results taken from patent US20240294586A1, “TENASCIN-C AUTOANTIGENIC EPITOPES IN RHEUMATOID ARTHRITIS” (Benaroya Research Institute at Virginia Mason, priority 2020, published 2024).
# Where no end group is shown, it is not given here. [ ]: non-standard residue; d: D form. Cit = NC(=O)NCCC[C@H](N)C(=O)O
# Legend:
# HLA-DRB1*04:01 [1] = target: HLA-DRB1*04:01 (Homo sapiens, UniProt P01903+P01911, A100K/A169T/F76Y/I96L/K127E/L162R/M171V/N62H/P40V/Q125Y/R42H/S133A/S149N/S66Y/V115G/V209L/W38E); experiment: Peptide competition binding assay to HLA-DRB1*04:01; settings: competition with 0.01 μM biotinylated influenza HA306-318
# [2] = test system: antibodies in sera from RA and HC subjects; experiment: ELISA for detection of serum antibodies against peptides; type: binding, human; settings: for antibody reactivity relative to threshold for positivity: Autoantibody Cohort 2
# Protocol: ELISAs were used to detect antibodies against citrullinated peptides in sera from patients in Autoantibody Cohorts 1 and 2 (FIG. 6). Peptides used in the assay were synthesized by either GenScript or Pepceutical and are described in FIG. 12. The ELISAs were conducted as previously described (Riedl et al. 2001 Int J Colorectal Dis.16:285; Quarona et al. 2013 Cytometry Part B, Clinical cytometry 84:207). In brief, 96-well Nunc Maxisorp plates were coated with 10 μg/ml peptide in PBS, blocked with 2% BSA and incubated with sera diluted 1:100. Bound antibodies were detected with an HRP-conjugated anti-human IgG Fc monoclonal antibody (6043HRP, Stratech). A standard curve of positive sera was used to calculate relative antibody titers in arbitrary units (AU) for each sample. The CCP2 ELISA for Autoantibody Cohort 1 was performed as by the manufacturer's instruction (FCCP600, Axis-Shield). Cross-reactivity was analyzed in human sera that were reactive to both cTNC56 or cTNC17 and cTNC5. Sera were diluted 1:100, incubated with 1, 10 and 100 μg/ml of peptides for 2 hours, centrifuged at 10,000 g for 10 min and the supernatant added to peptide-coated plates for analysis by ELISA as described above. Positivity was defined by the cut-off of the 98% percentile of healthy control samples from Autoantibody Cohort 1.
# memory CD4+ T cells = experiment: Ex vivo detection of peptide-reactive T cells by multiplex HLA class II tetramers; type: cell-based, human; settings: peripheral blood, RA n=9, HC n=7
# Protocol: Recombinant HLA-DRB1*04:01 protein was produced by the BRI Tetramer Core (Benaroya Research Institute, Seattle, WA) as previously described (Novak et al. 1999 J Clin Inv.104:R63). Soluble HLA-DRB1*04:01 monomer was purified from insect cell culture supernatants and biotinylated at a sequence-specific site using biotin ligase (Avidity) prior to dialysis into phosphate storage buffer. The biotinylated monomer was loaded with 0.2 mg/ml of peptide by incubating at 37° C. for 72 hours in the presence of 2.5 mg/ml n-octyl-β-D-glucopyranoside and 1 mM Pefabloc SC (Sigma-Aldrich). […]
# Ex vivo tetramer staining and enrichment was accomplished using previously published protocols (Rims et al. 2019 Arthritis Rheumatol. 71:518; Uchtenhagen et al. 2016 Nat Comm 7:12614). […] Samples were run on a BD LSRII flow cytometer, and data was analyzed using FlowJo software version 10. The frequency (F) of epitope-specific T cells per million memory CD4+ T cells was calculated as follows: F=(1,000,000×tetramer-positive events from enriched tube)/(100×number of memory CD4+ T cells from the “Pre” fraction). […] These served as the parent populations from which one of the four tetramer positive T-cell populations were then gated on and analyzed for surface receptor expression. […]
# [3] = test system: peripheral blood mononuclear cells (PBMC) from HLA-DRB1*04:01 positive subjects; experiment: In vitro expansion of peptide-specific T cells and HLA class II tetramer staining; type: cell-based, human; settings: two weeks of in vitro expansion, 10 μg/ml peptide
# Protocol: Recombinant HLA-DRB1*04:01 protein was produced by the BRI Tetramer Core (Benaroya Research Institute, Seattle, WA) as previously described (Novak et al. 1999 J Clin Inv.104:R63). Soluble HLA-DRB1*04:01 monomer was purified from insect cell culture supernatants and biotinylated at a sequence-specific site using biotin ligase (Avidity) prior to dialysis into phosphate storage buffer. The biotinylated monomer was loaded with 0.2 mg/ml of peptide by incubating at 37° C. for 72 hours in the presence of 2.5 mg/ml n-octyl-β-D-glucopyranoside and 1 mM Pefabloc SC (Sigma-Aldrich). Peptide loaded monomers were conjugated into tetramers using fluorescently labeled streptavidin (Invitrogen) for 6-18 hours at room temperature at a molar ratio of 8:1.
# Cryopreserved PBMCs from RA and healthy subjects were cultured at 5×10^6 cells/well in a 48 well plate in RPMI-1640+10% HPS with 10 μg/ml of peptide. IL-2 (Novartis) was added at 325 IU/ml on day 6. On day 14, cells were stained for expression of tetramer-PE, CD25 APC (BD) and CD4 FITC (BioLegend), and then characterized by immunocytofluorimetry on a FACSCanto™ (BD). The data were analyzed by FlowJo software version 10.
# [4] = test system: CCP-reactive antibody (ACPA) pools from plasma and synovial fluid; experiment: Extracellular matrix peptide microarray with polyclonal CCP-pools; type: binding, human; settings: ACPA pools at 15 μg/ml
# Protocol: The custom-made microarray was performed as previously described (Steen et al. 2019 Arthritis Rheumatol. 71:196). In brief, 16-aa long peptides that covered all arginine residues of 1,610 extracellular matrix proteins and RA related proteins were synthesized in situ (Roche NimbleGen). For tenascin C, there were a total of 217 peptides including both native and citrullinated variants of each peptide synthesized. Samples tested for reactivity against TNC derived peptides included synovial and plasma ACPA pools containing CCP-reactive antibodies from 26 and 38 RA patients, respectively (Ossipova et al. 2014 Arthritis Res Ther. 16:R167; Sahlström et al. 2020 Arthritis Rheumatol. 72:1643) Paired synovial fluid and serum samples from one RA patient taken at two time points 10 years apart were also screened. ACPA pools were run at a concentration of 15 μg/ml, whereas synovial fluid and plasma or serum samples were diluted 1/100 and tested for citrulline reactivity using a NimbleGen MS200 Scanner (Roche NimbleGen). A peptide signal intensity variation (spot size) of pixels was used as a basis for calculating the median fluorescence intensities. The cutoff for positive signals was defined as 5 times the fluorescence intensity of the 98th percentile of values for a set of monoclonal antibodies without citrulline reactivity. […]
# HLA-DRB1*04:01 [5] = target: T1, HLA-DRB1*04:01 (human); experiment: peptide competition assay against biotinylated HA306-318
# T1 construct: MHC class II molecule; also called HLA-DR protein; recombinant HLA-DRB1*04:01 protein
molecule,measurement,setting,value
arg-TNC56: corresponding unmodified arginine-containing peptide of cit-TNC56 (QGQYELRVDLRDHGE),binding to HLA-DRB1*04:01,HLA-DRB1*04:01 [1],did not
same,antibody reactivity relative to threshold for positivity,[2],below the threshold for positivity in almost all subjects
"MP 97-116: influenza peptide used as positive control (VKLYRKLKREITFHGAKEIS; Matrix protein 1; UniProt P03485 97-116, looked up, fragment) [reference compound]",frequency of peptide-specific memory CD4+ T cells in RA compared to HC subjects,memory CD4+ T cells,did not differ between RA and HC subjects
arg-TNC22: corresponding unmodified arginine-containing peptide of cit-TNC22 (FDRYRLNYSLPTGQW),binding to HLA-DRB1*04:01,HLA-DRB1*04:01 [1],bound
same,immunogenicity: epitope-specific T cell expansion by HLA Class II tetramer staining,[3],ability to elicit T cell responses
arg-TNC45: corresponding unmodified arginine-containing peptide of cit-TNC45 (PDGFRLSWTADEGVF),binding to HLA-DRB1*04:01,HLA-DRB1*04:01 [1],bound
same,immunogenicity: epitope-specific T cell expansion by HLA Class II tetramer staining,[3],ability to elicit T cell responses
arg-TNC17: corresponding unmodified arginine-containing peptide of cit-TNC17 (VSLISRRGDMSSNPA),binding to HLA-DRB1*04:01,HLA-DRB1*04:01 [1],did not
same,antibody reactivity relative to threshold for positivity,[2],below the threshold for positivity in almost all subjects
"cit-TNC5: previously published citrullinated peptide from the C-terminal FBG domain of TNC, used as positive control (CEHSIQFAEMKL[Cit]PSNF[Cit]NLEG[Cit][Cit]KRC; not fully specified; cysteine pairing not given here) [reference compound]",RA sera with antibodies to the peptide,"[2]; Autoantibody Cohort 1, HLA-DRB1*04:01 and CCP positive RA n=17",47%
same,antibody titers / reactivity in RA sera,"[2]; Autoantibody Cohort 1, sera diluted 1:100",highest
same,antibody reactivity in plasma CCP-pool,[4],could be verified
same,antibody reactivity in synovial fluid derived antibody pools,[4],strong positive signal
VSLISRRGDMSSNPA (not fully specified) [arg-TNC17],binding result,HLA-DRB1*04:01 [5],no binding
"QGQYELRVDLRDHGE (not fully specified, See note of arg-TNC17) [arg-TNC56]",binding result,HLA-DRB1*04:01 [5],no binding
